The results in this text go back to US20250242040A1, “ALBUMIN CONJUGATE, PREPARATION METHOD THEREFOR AND USE THEREOF” (Suzhou KangDeRui Pharmaceutical, Ltd., priority 2023, published 2025).

For this assay, the system named is A-549 cells. Kind of assay: Apoptosis assay of A-549 cells by flow cytometry (in vitro cytotoxic activity). Type of assay: cell-based. As to the method: The apoptosis of A-549 cells was analyzed by flow cytometry (FIG. 2).

Non-standard residues stand in square brackets, D forms with d. Residues, ends and D or L forms follow the SMILES beside them. Dolaproine = CO[C@@H]([C@@H]1CCCN1)[C@@H](C)C(=O)O; Dil = CC[C@H](C)[C@H](NC)[C@@H](CC(=O)O)OC; NMeV = CN[C@H](C(=O)O)C(C)C

`CC[C@H](C)[C@@H]([C@@H](CC(=O)N1CCC[C@H]1[C@H](OC)[C@@H](C)C(=O)N[C@@H](Cc1ccccc1)C(=O)O)OC)N(C)C(=O)[C@@H](NC(=O)[C@@H](NC)C(C)C)C(C)C` [MMAF, monomethyl auristatin F] (H-[NMeV]V[Dil][Dolaproine]F-OH) yielded an apoptosis efficiency of 12.3%.
